Assay results reported in patent US10946057B2, “Antiseptics” (INSIGHT HEALTH LIMITED, priority 2007, dated 2021).
Converted amounts (≈) assume the structure as drawn. Where two headings read alike, the source gives them in different places.

Assays:
[1] = test system: S. epidermidis RP62A biofilm; assay: Antimicrobial activity against S. epidermidis biofilm by ATP bioluminescence; format: cell-based, Staphylococcus epidermidis; settings: for MBC/biofilm eradicating concentration / Minimum inhibitory concentration (MIC), bacteria growing in biofilm: S. epidermidis RP62A biofilm
Experimental: S. epidermidis RP62A was used for its ability to produce a biofilm (Sadovskaya, et al., 2005). Bacteria were stored on beads (MicroBank, Pro-Lab Diagnostics, Cheshire, UK) at −70° C. until required. The ability of the strain to produce slime was confirmed by culturing the bacteria on Congo Red agar (Freeman, et al., 1989). For producing the microbial biofilms, the strains were first inoculated onto Muller-Hinton agar (MHA) (Oxoid, Basingstoke, UK) and incubated in air at 37° C. for 18-20 hours. Ten colonies from the culture plate were suspended into sterile phosphate buffered saline (PBS, Sigma, Dorset, UK). The bacterial concentration was adjusted to 1×10*8 cfu/mL by diluting the culture with sterile PBS and measuring the OD at 570 nm (calibration curve for S. epidermidis cfu against OD at 570 nm were performed prior to the study, data not shown). The suspension was further diluted with Muller-Hinton broth (MHB) supplemented with 2% (w/v) glucose (Fisher Scientific, Leicester, UK) to obtain inocula containing 1×10*5 cfu/mL. Two hundred μL of the bacterial suspension were aliquoted into wells of white walled, clear bottom, tissue culture treated 96-well microtitre plate (Corning Incorporated, NY, USA). The wells in the last column of the plate served as a control, and contained 200 μL of MHB supplemented with 2% (w/v) glucose only. Microtitre plates were incubated in air at 37° C. for 48 hours.
(§1) Aqueous chlorhexidine digluconate (CHG), tea tree oil (TTO), eucalyptus oil (EO) and thymol (all from Sigma-Aldrich) were diluted with MHB to obtain stock solution of 512 mg/mL for essential oils and 512 μg/mL for CHG. Five percent (v/v) dimethylsulphoxide (DMSO) (Sigma-Aldrich) was added to the stocks of essential oils to enhance their solubility of the oils in suspension.
Prior to antimicrobial susceptibility studies, a standard curve for relative light units (RLU) versus bacterial cfu/mL was performed. S. epidermidis was grown with MHB supplemented with 2% (w/v) glucose in a 96-well microtitre plate as described previously to obtain bacterial biofilms. The wells of the microtitre plate with established bacterial biofilms were washed three times with sterile PBS and biofilms were removed from the wells by using “a scrape and wash method” (Adams, 2006). In brief, each well was filled with 200 μL of sterile PBS and, with a sterile pipette tip, the wall of each well was scraped approximately 10 times and the bottom scraped horizontally, vertically and cross-wise in each direction 10 times. The suspension was removed and collected into a sterile Eppendorf tube and the procedure repeated a further 4 times to obtain a final volume of 1000 μL per tube. The procedure was performed on three wells separately. The suspensions were mixed by vortexing and serial dilutions were performed in sterile PBS. 100 μL of the neat suspension and 10^−1 to 10^−5 dilutions were aliquoted onto wells of a white-walled, clear bottom microtitre plate. 100 microlitres of bactolyse were added into each well. The plate was then floated on a water bath sonicator and the plate was sonicated at 50 Hz for 30 minutes to lyse the cells and release the bacterial ATP. Twenty μL of luciferase where added into each well and luminescence read by a luminometer. The bacterial cfu in each suspension and dilution were established by the drop count method. The results were expressed as cfu against RLU.
Microtitre plates containing S. epidermidis RP62A biofilm were washed once with sterile PBS to remove any unbound bacteria. Antimicrobial agents were diluted with MHB to obtain CHG concentrations of 128 μg/mL to 0.25 μg/mL and essential oil concentrations of 256 mg/mL to 0.5 mg/mL. Two hundred and fifty microlitres of the antimicrobial compound were added in the wells in triplicate. Columns 11 and 12 served as controls with biofilm with saline alone and clear wells with MHB alone without bacterial biofilm.

[2] = test system: S. epidermidis RP62A (planktonic cells, suspension); assay: MIC/MBC by microbroth dilution assay, S. epidermidis in suspension; format: cell-based; settings: Staphylococcus epidermidis, read-out: Minimum inhibitory concentration (MIC), planktonic cells
Experimental: Test inocula for the suspension assay were prepared by suspending 10 colonies of S. epidermidis RP62A from an overnight culture on MHA into sterile PBS. The bacterial concentration was adjusted to 1×10*8 cfu/mL by diluting the culture with sterile PBS and measuring the OD at 570 nm (calibration curve for S. epidermidis cfu against OD at 570 nm were performed prior to the study, data not shown). The suspension was further diluted with MHB to obtain inocula containing 1×10*7 cfu/mL for synergy assays or 1×10*6 cfu/ml for testing antimicrobial activity of CHG and oils alone in suspension.
as §1
Minimum inhibitory concentration (MIC) and minimum bacterial concentration (MBC) of aqueous CHG, TTO, EO and thymol were performed by microbroth dilution assay (NCCLS, 1997). […] Minimum bactericidal concentrations were determined by removing the suspension from the clear wells into MHA, spread with a sterile spreader and incubating the plates in air at 37° C. for 18-20 hours. […]

[3] = CHG penetration profile studies with EO and IPA (CHG extracted from skin sections); format: in vitro ADME, human
Experimental: Following exposure, the skin samples were removed, washed with PBS and dried with an absorbent towel. The skin samples were immediately sprayed with a cryospray (Bright Instruments) and frozen at -20° C. Punch biopsies (7 mm in diameter) were cut from each frozen sample in triplicate and placed onto a cork disc in embedding compound (Bright Instruments, Cambs, UK), The frozen samples were sectioned horizontally with a microtome (Bright Instruments) into 20 μm sections (from the surface to a depth of 600 μm) and 30 μm sections (from depths of 600 to 1500 μm). Each section was placed into an Eppendorf tube and the total weight of each skin sample determined. Chlorhexidine was extracted from the skin by aliquoting 1 mL of mobile phase solution (75% methanol, 25% distilled water, 0.1% sodium heptane sulphonate, 0.1% diethylamine, pH 4) into skin samples and incubated in water bath at 60° C. for 1 h. The samples were mixed by vortexing and filtered prior to analysis by HPLC. The results were calculated as μg of CHG per mg of skin. Control skin (skin without treatment) was analysed parallel to the test samples. The assay was performed in triplicate. The data obtained were analysed by a student t-test using […] software (Graph pad software version 3.06) with a p<0.05 level of significance.

[4] = Skin permeation study CHG + eucalyptus oil, Franz diffusion cells, receptor fluid by HPLC; format: in vitro ADME; settings: 24 hour skin permeation, full thickness human skin, Franz cell
Experimental: Prior to the study full ethical committee approval and written consent from patients donating the tissue was obtained. […] Vertical diffusion cells (Franz diffusion cells), with an average diffusion surface area of 1.65 cm^2, were used for skin permeation studies. Phosphate buffered saline (PBS) was used as a receptor fluid, and left overnight in a receptor compartment (approximately volume 29 mls) with circulating water jacket set at 37° C. On the day of investigation the excised skin was thawed in PBS and cut into size to fit Franz diffusion cells (2.9 cm circle across). The skin samples were mounted into Franz diffusion cells and left for 1 hour in the diffusion cells to equilibrate with the receptor fluid prior to commencing the study. […] One millilitre of CHG solution of CHG/eucalyptus oil suspension was aliquoted in triplicate on the surface of the excised human skin on the donor compartment in Franz diffusion cells. The temperature was maintained constant by a circulating water jacket set at 37° C. and the receptor fluid was agitated continuously by magnetic stirrer bar. […] The samples were filtered and analysed by HPLC. Chlorhexidine digluconate was analysed quantitatively by HPLC. […] The samples were filtered and analysed with HPLC (Agilent 1100) with ODS-2 Hypersil column (5μ particle size) (Thermo Electron Corporation, UK) with a flow rate of 1.2 mls/min, detector wavelength 254 nm.

[5] = Skin permeation of CHG with EO and IPA, Franz diffusion cells, receptor compartment by HPLC; settings: 24 h permeation study, skin from two donors; LOD 0.0157 μg/mL
Experimental: The full thickness human skin was frozen on the day of excision and stored at −70° C. until required.
Skin permeation studies were performed with vertical Franz diffusion cells. The receptor compartment was filled with 29 mL of PBS and maintained at 37° C. by a circulating water jacket and agitated by stirring with a magnetic bar. Skin samples were thawed in PBS at room temperature, dried with an absorbent towel and mounted onto Franz diffusion cells with the stratum corneum (SC) uppermost facing the donor compartment. The surface area exposed to the test compound was 3.14 cm2 (2 cm in diameter). All entrapped air was removed between the skin and receptor fluid and the skin was left to equilibrate for 30 min to reach the skin surface temperature of 32° C.
Twenty percent (w/v) aqueous CHG was diluted with distilled water, IPA and EO to obtain the final concentrations of 2% (w/v) CHG in 70% (v/v) IPA and 2% (w/v) CHG with 5%, 10%, 20% and 50% (v/v) EO. Tween 80 [0.1% (v/v)] was added to the test solutions to enhance EO solubility in the vehicle. One millilitre of test solution was spread over the skin surface in the donor compartment and the compartment was sealed with a moisture resistant film to prevent evaporation. […] All samples were filtered through a 0.45 μm nylon filter (Kinesis, UK) and analysed by HPLC. […]

Minimum inhibitory concentration (MIC), bacteria growing in biofilm ([1]; oil alone)	MIC lower against biofilms compared to planktonic cells ([1]; biofilm vs planktonic)	MIC ([2]; oil alone)	Structure (SMILES)	MBC/biofilm eradicating concentration [1]	Mean concentration of CHG (and SEM) within the tissues ([3]; 2 min exposure, 300 to 1500 μm depths)	Mean CHG concentration (and SEM) ([3]; 30 min exposure, depths of 300 μm to 1500 μm)	CHG concentration extracted from the deeper layers of the skin ([3]; 24 h exposure, 300 to 1500 μm depths)	CHG concentration extracted from the top 100 μm layer ([3]; 24 h exposure, top 100 μm)	Minimum inhibitory concentration (MIC), bacteria growing in biofilm ([1]; agent alone)	MIC higher against bacteria growing in biofilm compared to planktonic cells ([1]; biofilm vs planktonic)	MIC ([2]; agent alone)	Levels of CHG in the receptor fluid [4]	Chlorhexidine in the receptor compartment [5]
1000 µg/mL (≈ 6.66 mM)	2 fold	4000 µg/mL (≈ 26.6 mM)	Cc1ccc(C(C)C)c(O)c1 [Thymol, thymol]	2000 µg/mL (≈ 13.3 mM)	–	–	–	–	–	–	–	–	–
–	–	–	[H]/N=C(\N/C(=N/[H])NCCCCCCNC(=N)NC(=N)Nc1ccc(Cl)cc1)Nc1ccc(Cl)cc1 [CHG, chlorhexidine digluconate]	32 µg/mL	0.0048 μg/mg tissue	0.0021 (±0.0004) μg/mg tissue	0.581 (±0.0466) μg per mg tissue	7.880 μg per mg tissue	8 µg/mL	2 fold	2 µg/mL	did not show detectable levels	not detected
